# Assay results from patent US20250288589A1, “PYRIDOPYRIMIDINES AND METHODS OF THEIR USE” (Kineta, Inc., priority 2021, published 2025).
# Target: T1, full-length human PIKFYVE (Homo sapiens, UniProt Q9Y2I7, L932S/Q1183K/Q995L/S1033A/S696N/T998S)
# T1 construct: A full-length human PIKFYVE [1-2098(end) amino acids and S696N, L932S, Q995L, T998S, S1033A and Q1183K; purchased Carna Biosciences; host or cells: baculovirus expression system
# Test: PIKfyve biochemical assay (ADP-Glo Kinase assay, Carna Biosciences)
# Conditions: GST-PIKFYVE, 10 μM to 3 nM in duplicate, read-out: hPIKfyve IC50
# Excerpt: (§1) PIKfyve Biochemical Assay. The biochemical PIKFyve inhibition assays were run by Carna Biosciences according to proprietary methodology based on the Promega ADP-Glo™ Kinase assay. A full-length human PIKFYVE [1-2098(end) amino acids and S696N, L932S, Q995L, T998S, S1033A and Q1183K of the protein having the sequence set forth in NCBI Reference Sequence No. NP_055855.2] was expressed as N-terminal GST-fusion protein (265 kDa) using baculovirus expression system. GST-PIKFYVE was purified by using glutathione sepharose chromatography and used in an ADP-Glo™ Kinase assay (Promega). Reactions were set up by adding the test compound solution, substrate solution, ATP solution and kinase solution, each at 4× final concentrations. Reactions were prepared with assay buffer (50 mM MOPS, 1 mM DTT, pH7.2), mixed, and incubated in black 384 well polystyrene plates for 1 hour at room temperature. ADP-Glo™ reagent was then added for 40 minutes, followed by kinase detection reagent for an additional 40 minutes. The kinase activity was evaluated by detecting relative light units on a luminescence plate reader. Samples were run in duplicate from 10 μM to 3 nM. […] IC50 values were calculated from concentration vs % inhibition curves by fitting to a four-parameter logistic curve.
# as §1, with “The” for “PIKfyve Biochemical Assay. The”, “accession number” for “the protein having the sequence set forth in NCBI Reference Sequence No.”, “uM” for “μM”
# T1 sequence (Q9Y2I7 whole entry S696N/L932S/Q995L/T998S/S1033A/Q1183K): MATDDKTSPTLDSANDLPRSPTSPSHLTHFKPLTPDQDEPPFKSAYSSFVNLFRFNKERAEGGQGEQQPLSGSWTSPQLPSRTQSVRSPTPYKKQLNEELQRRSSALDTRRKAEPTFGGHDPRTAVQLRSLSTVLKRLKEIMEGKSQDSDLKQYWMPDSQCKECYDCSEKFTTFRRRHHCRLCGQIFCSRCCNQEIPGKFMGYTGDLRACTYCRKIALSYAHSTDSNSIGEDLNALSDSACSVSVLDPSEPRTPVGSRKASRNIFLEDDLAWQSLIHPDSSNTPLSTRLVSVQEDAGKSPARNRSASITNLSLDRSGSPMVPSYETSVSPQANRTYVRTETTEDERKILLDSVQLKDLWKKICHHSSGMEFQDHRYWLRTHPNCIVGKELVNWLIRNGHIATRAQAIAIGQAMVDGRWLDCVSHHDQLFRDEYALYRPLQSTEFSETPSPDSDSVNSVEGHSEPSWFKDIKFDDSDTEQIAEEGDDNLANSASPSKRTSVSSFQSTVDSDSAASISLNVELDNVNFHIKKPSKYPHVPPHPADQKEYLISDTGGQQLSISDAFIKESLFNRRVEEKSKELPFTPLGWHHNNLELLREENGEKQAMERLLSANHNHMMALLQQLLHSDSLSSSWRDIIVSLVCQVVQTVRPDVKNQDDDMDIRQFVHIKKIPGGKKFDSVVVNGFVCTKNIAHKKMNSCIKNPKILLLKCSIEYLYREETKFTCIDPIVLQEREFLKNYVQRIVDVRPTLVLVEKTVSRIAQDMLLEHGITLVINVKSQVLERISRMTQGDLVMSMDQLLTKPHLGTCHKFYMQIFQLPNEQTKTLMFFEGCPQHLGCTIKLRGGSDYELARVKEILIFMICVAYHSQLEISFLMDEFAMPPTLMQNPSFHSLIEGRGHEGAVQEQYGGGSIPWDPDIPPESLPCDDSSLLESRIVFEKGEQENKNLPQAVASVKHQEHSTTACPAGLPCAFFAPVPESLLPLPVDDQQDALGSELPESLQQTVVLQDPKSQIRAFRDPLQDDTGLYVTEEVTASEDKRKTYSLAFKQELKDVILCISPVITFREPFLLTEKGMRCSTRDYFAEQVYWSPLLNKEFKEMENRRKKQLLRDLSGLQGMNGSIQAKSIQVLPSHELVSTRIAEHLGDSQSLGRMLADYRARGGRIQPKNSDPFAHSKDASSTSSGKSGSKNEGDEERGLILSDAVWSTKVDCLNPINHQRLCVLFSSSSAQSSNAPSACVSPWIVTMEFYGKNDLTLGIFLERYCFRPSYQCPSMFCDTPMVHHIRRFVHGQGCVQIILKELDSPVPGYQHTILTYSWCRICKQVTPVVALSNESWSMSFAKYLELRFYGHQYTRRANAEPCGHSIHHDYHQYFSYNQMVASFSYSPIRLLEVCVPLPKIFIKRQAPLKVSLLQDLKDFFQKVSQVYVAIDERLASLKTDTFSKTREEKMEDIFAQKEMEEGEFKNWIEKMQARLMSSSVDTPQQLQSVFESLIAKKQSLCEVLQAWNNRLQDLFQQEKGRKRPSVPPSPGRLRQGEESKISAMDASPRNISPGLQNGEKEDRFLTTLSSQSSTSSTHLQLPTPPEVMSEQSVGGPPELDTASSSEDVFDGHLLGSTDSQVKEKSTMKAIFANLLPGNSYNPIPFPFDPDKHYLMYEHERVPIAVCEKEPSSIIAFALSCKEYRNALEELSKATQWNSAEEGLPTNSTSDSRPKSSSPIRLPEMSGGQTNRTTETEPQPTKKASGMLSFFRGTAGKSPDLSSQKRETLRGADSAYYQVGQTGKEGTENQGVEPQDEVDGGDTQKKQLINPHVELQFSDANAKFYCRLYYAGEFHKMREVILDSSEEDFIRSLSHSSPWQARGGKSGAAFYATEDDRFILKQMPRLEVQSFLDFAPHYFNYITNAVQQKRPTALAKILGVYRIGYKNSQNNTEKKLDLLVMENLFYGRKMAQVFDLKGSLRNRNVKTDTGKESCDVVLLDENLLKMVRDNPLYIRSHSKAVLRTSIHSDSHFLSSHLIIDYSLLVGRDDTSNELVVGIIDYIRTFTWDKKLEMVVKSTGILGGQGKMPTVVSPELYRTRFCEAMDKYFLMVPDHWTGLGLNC
row,IC50 [nM],SMILES
1,100 to 1000,"c1ccc(-c2ccn(-c3nc(N4CCOCC4)c4ncccc4n3)n2)nc1 [Compound 12, 4-(2-(3-(pyridin-2-yl)-1H-pyrazol-1-yl)pyrido[3,2-d]pyrimidin-4-yl)morpholine]"
2,100 to 1000,"Brc1cnc2c(N3CCOCC3)nc(-n3ccc(-c4ccccc4)n3)nc2c1 [Compound 33, 4-(7-bromo-2-(3-phenyl-1H-pyrazol-1-yl)pyrido[3,2-d]pyrimidin-4-yl)morpholine]"
3,> 10000,"CC(C)(C)OC(=O)N1CCC=C(c2ccn(-c3nc(N4CCOCC4)c4ncccc4n3)n2)C1 [Compound 5, tert-butyl 3-(1-(4-morpholinopyrido[3,2-d]pyrimidin-2-yl)-1H-pyrazol-3-yl)-5,6-dihydropyridine-1(2H)-carboxylate]"
4,100 to 1000,"Fc1ccccc1-c1ccn(-c2nc(N3CCOCC3)c3ncc(C4CCOCC4)cc3n2)n1 [Compound 19, 4-[2-[3-(2-fluorophenyl)pyrazol-1-yl]-7-tetrahydropyran-4-yl-pyrido[3,2-d]pyrimidin-4-yl]morpholine]"
5,10 to 100,"c1ccc(-c2ccn(-c3nc(N4CCOCC4)c4ncc(N5CCNCC5)cc4n3)n2)cc1 [Compound 42, 4-[2-(3-phenylpyrazol-1-yl)-7-piperazin-1-yl-pyrido[3,2-d]pyrimidin-4-yl]morpholine]"
6,10 to 100,"Oc1cnc(-c2ccccc2)nc1-c1nc(N2CCOCC2)c2ncccc2n1 [Compound 94, 4-(4-morpholinopyrido[3,2-d]pyrimidin-2-yl)-2-phenylpyrimidin-5-ol]"
7,> 10000,"Clc1nc(N2CCOCC2)c2ncc(Cc3cccnc3)cc2n1 [Compound 128, 4-(2-chloro-7-(pyridin-3-ylmethyl)pyrido[3,2-d]pyrimidin-4-yl)morpholine]"
8,< 10,"c1ccc(-c2cnn(-c3nc(N4CCOCC4)c4ncc(N5CCOCC5)cc4n3)c2)cc1 [Compound 40, 4,4′-(2-(4-phenyl-1H-pyrazol-1-yl)pyrido[3,2-d]pyrimidine-4,7-diyl)dimorpholine]"
9,100 to 1000,"COc1cnc(-c2ccccc2)nc1-c1nc(N2CCOCC2)c2ncccc2n1 [Compound 93, 4-(2-(5-methoxy-2-phenylpyrimidin-4-yl)pyrido[3,2-d]pyrimidin-4-yl)morpholine]"
10,100 to 1000,"COc1ccc(-c2ccn(-c3nc(N4CCOCC4)c4ncc(C5=CCOCC5)cc4n3)n2)cc1 [Compound 29, 4-(7-(3,6-dihydro-2H-pyran-4-yl)-2-(3-(4-methoxyphenyl)-1H-pyrazol-1-yl)pyrido[3,2-d]pyrimidin-4-yl)morpholine]"
11,> 10000,"c1ncc(-c2ccn(-c3nc(N4CCOCC4)c4ncc(C5CCOCC5)cc4n3)n2)cn1 [Compound 50, 4-[2-(3-pyrimidin-5-ylpyrazol-1-yl)-7-tetrahydropyran-4-yl-pyrido[3,2-d]pyrimidin-4-yl]morpholine]"
12,10 to 100,"COc1cccc(-c2cnn(-c3nc(N4CCOCC4)c4ncc(C(=O)O)cc4n3)c2)c1 [Compound 44, 2-(4-(3-methoxyphenyl)-1H-pyrazol-1-yl)-4-morpholinopyrido[3,2-d]pyrimidine-7-carboxylic acid]"
13,10 to 100,"Cc1cnc2c(N3CCOCC3)nc(-n3ccc(-c4ccccc4)n3)nc2c1 [Compound 34, 4-(7-methyl-2-(3-phenyl-1H-pyrazol-1-yl)pyrido[3,2-d]pyrimidin-4-yl)morpholine]"
14,100 to 1000,"CC1COCCN1c1nc(-c2ccnc(-c3ccccc3)n2)nc2cccnc12 (stereo not shown) [Compound 106, 3-methyl-4-(2-(2-phenylpyrimidin-4-yl)pyrido[3,2-d]pyrimidin-4-yl)morpholine]"

# Target: T2, PIKfyve (Homo sapiens, UniProt Q9Y2I7)
# T2 construct: PIKFYVE-NanoLuc® Fusion Vector (Promega) containing a full-length PIKfyve; host or cells: HEK293
# Test: NanoBRET TE Intracellular Kinase Assay, K-8 (Promega) cell-based assay
# Conditions: HEK293 cells transfected with PIKFYVE-NanoLuc, compounds 2 hours; read-out: hPIKfyve BRET IC50
# Description: NanoBRET™ TE Intracellular Kinase Assay, K-8 (Promega) Cell-Based Assay. Intracellular inhibition of PIKfyve was assayed using Promega's NanoBRET™ TE Intracellular Kinase Assay, K-8 according to manufacturer's instructions. A dilution series of test compounds was added for 2 hours to HEK293 cells transfected for a minimum of 20 hours with PIKFYVE-NanoLuc® Fusion Vector (Promega) containing a full-length PIKfyve according to manufacturer's specifications in a 96-well plate. Kinase activity was detected by addition of a NanoBRET™ tracer reagent, which was a proprietary PIKfyve inhibitor appended to a fluorescent probe (BRET, bioluminescence resonance energy transfer). Test compounds were tested at concentrations of 10, 3, 1, 0.3, 0.1, 0.03, 0.01, 0.003 μM. BRET signals were measured by a GloMax® Discover Multimode Microplate Reader (Promega) using 0.3 sec/well integration time, 450BP donor filter and 600LP acceptor filters. Active test compounds that bound PIKfyve and displaced the tracer reduced BRET signal. IC50 values were then calculated by fitting the data to the normalized BRET ratio.
# T2 sequence (Q9Y2I7 whole entry, the tested form may be a part): as the sequence (Q9Y2I7 whole entry S696N/L932S/Q995L/T998S/S1033A/Q1183K) above, with N696S, S932L, L995Q, S998T, A1033S, K1183Q counted along it
row,IC50 [nM],SMILES
1,1000 to 10000,"c1ccc(-c2ccn(-c3nc(N4CCOCC4)c4ncccc4n3)n2)nc1 [Compound 12, 4-(2-(3-(pyridin-2-yl)-1H-pyrazol-1-yl)pyrido[3,2-d]pyrimidin-4-yl)morpholine]"
2,> 10000,"Oc1cc(-c2ccccc2)nn1-c1nc(N2CCOCC2)c2ncccc2n1 [Compound 71, 1-(4-morpholinopyrido[3,2-d]pyrimidin-2-yl)-3-phenyl-1H-pyrazol-5-ol]"

# Test system: PIKFYVE TDP-43 yeast strain
# Test: Propidium iodide viability assay in PIKFYVE TDP-43 yeast strain
# Type: cell-based
# Conditions: Saccharomyces cerevisiae; reduction in PI-positive cells, 24 hours, 15 μM to 0.11 μM; plotted in FIG. 7
# Excerpt: Generation of TDP-43 yeast model expressing human PIKfyve. Human PIKFYVE (“entry clone”) was cloned into pAG416GPDccdB (“destination vector”) according to standard Gateway cloning protocols (Invitrogen, Life Technologies). The resulting pAG416GPD-PIKFYVE plasmids were amplified in E. coli and plasmid identity confirmed by restriction digest and Sanger sequencing. Lithium acetate/polyethylene glycol-based transformation was used to introduce the above PIKFYVE plasmid into a BY4741 yeast strain auxotrophic for the ura3 gene and deleted for two transcription factors that regulate the xenobiotic efflux pumps, a major efflux pump, and FAB1, the yeast ortholog of PIKFYVE (MATa, snq2::KILeu2; pdr3::Klura3;pdr1::NATMX; fab1::G418^R, his3;leu2;ura3;met15;LYS2+) (FIG. 2).
# Transformed yeast were plated on solid agar plates with complete synthetic media lacking uracil (CSM-ura) and containing 2% glucose. Individual colonies harboring the control or PIKFYVE TDP-43 plasmids were recovered. A plasmid containing wild-type TDP-43 under the transcriptional control of the GAL1 promoter and containing the hygromycin-resistance gene as a selectable marker was transformed into the fab1::G418^R pAG416GPD-PIKFYVE yeast strain (FIG. 1). Transformed yeast were plated on CSM-ura containing 2% glucose and […] after overnight recovery in media lacking antibiotic. Multiple independent isolates were further evaluated for cytotoxicity and TDP-43 expression levels.
# Viability Assay. A control yeast strain with the wild-type yeast FAB1 gene and TDP-43 (“FAB1 TDP-43”, carries empty pAG416 plasmid), and the “PIKFYVE TDP-43” yeast strain, were assessed for toxicity using a propidium iodide viability assay. Both yeast strains were transferred from solid CSM-ura/2% glucose agar plates into 3 mL of liquid CSM-ura/2% glucose media for 6-8 hours at 30° C. with aeration. Yeast cultures were then diluted to an optical density at 600 nm wavelength (OD600) of 0.005 in 3 mL of CSM-ura/2% raffinose and grown overnight at 30° C. with aeration to an OD600 of 0.3-0.8. Log-phase overnight cultures were diluted to OD600 of 0.005 in CSM-ura containing either 2% raffinose or galactose and 150 μL dispensed into each well of a flat bottom 96-well plates. Compounds formulated in 100% dimethyl sulfoxide (DMSO) were serially diluted in DMSO and 1.5 μL diluted compound transferred to the 96-well plates using a multichannel pipet. Wells containing DMSO alone were also evaluated as controls for compound effects. Tested concentrations ranged from 15 μM to 0.11 μM. Cultures were immediately mixed to ensure compound distribution and covered plates incubated at 30° C. for 24 hours in a stationary, humified incubator.
# Upon the completion of incubation, cultures were assayed for viability using propidium iodide (PI) to stain for dead/dying cells. A working solution of PI was made where, for each plate, 1 μL of 10 mM PI was added to 10 mL of CSM-ura (raffinose or galactose). The final PI solution (50 μL/well) was dispensed into each well of a new round bottom 96-well plate. The overnight 96-well assay plate was then mixed with a multichannel pipet and 50 μL transferred to the PI-containing plate. This plate was then incubated for 30 minutes at 30° C. in the dark. A benchtop flow cytometer (Miltenyi MACSquant) was then used to assess red fluorescence (B2 channel), forward scatter, and side scatter (with following settings: gentle mix, high flow rate, fast measurement, 10,000 events). Intensity histograms were then gated for “PI-positive” or “PI-negative” using the raffinose and galactose cultures treated with DMSO as controls. The DMSO controls for raffinose or galactose-containing cultures were used to determine the window of increased cell death and this difference set to 100. All compounds were similarly gated and then compared to this maximal window to establish the percent reduction in PI-positive cells.
row,SMILES,IC50 [nM]
1,Cc1cccc(/C=N/Nc2nc(N3CCOCC3)c3nc(-c4ccncc4)n(C)c3n2)c1,4720
2,c1ccc(N2CCc3c(OCc4cccnc4)nc(N4CCOCC4)nc32)cc1,2680
3,c1ccc(-c2cccc(-c3cc(N4CCOCC4)n4nc(-c5ccncc5)cc4n3)n2)cc1,230
4,Oc1cc(-c2ccccc2)nn1-c1cc(N2CCOCC2)n2nc(-c3ccncc3)nc2n1,693
5,Oc1cc(C2CCOCC2)nn1-c1cc(N2CCOCC2)n2nc(-c3ccncc3)cc2n1,9100
6,c1ccc(-c2ccnc(-c3cc(N4CCOCC4)nc(OCc4ccncc4)n3)n2)cc1,1450
7,Cc1cccc(/C=N/Nc2nc(N3CCOCC3)c3ncccc3n2)c1,8210
8,Fc1cccc(-c2ccnn2-c2nc(N3CCOCC3)c3ncccc3n2)c1,5750
9,Cc1cccc(/C=N/Nc2cc(N3CCOCC3)nc(OCCc3ccc(CN)cc3)n2)c1,1120
